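Dose response: 5 concentrations. Exposure: 48 h. Format: 96-well plates. Endpoint: linear interpolation; highest concentration if not reached. GI50 = concentration required for 50% inhibition of growth.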 Activity calls are given as the source filed them. No stated cut-off is given here; in the data, active = GI50 up to about 1.1 µM and inactive = higher. *1 amine or outer side, *2 acyl side, *3 side chain or, on linkers, in order; H or OH if unused. Where a SMILES comes first, the peptide text is derived from it. Bridges are numbered along the chain shown (N, C = ends). [ ]: non-standard residue; d: D form. The star is where a group is joined. ξ: configuration not given here. ξOrn(4,5-diOH) = O=C(C(CC(O)C(O)N[*:3])N[*:1])[*:2]; ξhTyr(βξ-OH,γξ-OH) = NC(C(=O)O)C(O)C(O)c1ccc(O)cc1; ξPro(3ξ-OH,4ξ-Me) = CC1CNC(C(=O)O)C1O; X55 = CCCCC/C=C/C/C=C\CCCCCCCC(=O)*; Hyp = O=C(O)[CH]1C[CH](O)CN1
How the values were obtained:
Assay in all cases: NCI tumour cell line growth inhibition, 48 h
[1] = tested on: 786-0
[2] = tested on: A498
[3] = tested on: ACHN
[4] = tested on: BT-549
[5] = tested on: CAKI-1
[6] = tested on: COLO 205
[7] = tested on: DU-145
[8] = tested on: HCC 2998
[9] = tested on: IGROV-1
[10] = tested on: K562
[11] = tested on: MCF7
[12] = tested on: NCI-H522
[13] = tested on: SK-MEL-2
[14] = tested on: SNB-19
[15] = tested on: SW-620
[16] = tested on: TK-10
[17] = tested on: UACC-257
[18] = tested on: UACC-62
[19] = tested on: Hs-578T

| Structure (SMILES) | GI50 [1] | GI50 [2] | GI50 [3] | GI50 [4] | GI50 [5] | GI50 [6] | GI50 [7] | GI50 [8] | GI50 [9] | GI50 [10] | GI50 [11] | GI50 [12] | GI50 [13] | GI50 [14] | GI50 [15] | GI50 [16] | GI50 [17] | GI50 [18] | GI50 [19] |
| --- | --- | --- | --- | --- | --- | --- | --- | --- | --- | --- | --- | --- | --- | --- | --- | --- | --- | --- | --- |
| O=S(=O)(O)c1cc(O)c2c(/N=C\c3ccccc3O)cc(S(=O)(=O)O)cc2c1 | > 100 µM (inactive) | > 100 µM (inactive) | > 100 µM (inactive) | > 100 µM (inactive) | > 100 µM (inactive) | > 100 µM (inactive) | > 100 µM (inactive) | > 100 µM (inactive) | > 100 µM (inactive) | 86.5 µM (inactive) | > 100 µM (inactive) | > 100 µM (inactive) | > 100 µM (inactive) | > 100 µM (inactive) | > 100 µM (inactive) | > 100 µM (inactive) | > 100 µM (inactive) | > 100 µM (inactive) |  |
| COC1=C(C)C(=O)c2c(c(COC(N)=O)c3n2CC2C3N2C)C1=O (stereo not drawn) | < 0.01 µM (active) | 0.0519 µM (active) | < 0.01 µM (active) | 0.0222 µM (active) | < 0.01 µM (active) | < 0.0157 µM (active) | < 0.01 µM (active) |  | 0.0425 µM (active) | 0.051 µM (active) | < 0.01 µM (active) | < 0.0124 µM (active) | 0.0361 µM (active) | < 0.0115 µM (active) | < 0.0113 µM (active) | 0.0117 µM (active) | < 0.0107 µM (active) | < 0.0114 µM (active) | 0.16 µM (active) |
| CCCCC/C=C/C/C=C\CCCCCCCC(=O)NC1CC(O)C(O)NC(=O)C2C(O)C(C)CN2C(=O)C(C(C)O)NC(=O)C(C(O)C(O)c2ccc(O)cc2)NC(=O)C2CC(O)CN2C(=O)C(C(C)O)NC1=O (stereo not drawn) (X55-[ξOrn(4,5-diOH)]T[Hyp][ξhTyr(βξ-OH,γξ-OH)]T[ξPro(3ξ-OH,4ξ-Me)]; lactam 1-C; configuration not given here) | > 100 µM (inactive) |  | > 100 µM (inactive) | > 100 µM (inactive) | > 100 µM (inactive) | > 100 µM (inactive) | > 100 µM (inactive) | > 100 µM (inactive) | > 100 µM (inactive) | > 100 µM (inactive) |  | > 100 µM (inactive) | > 100 µM (inactive) | > 100 µM (inactive) | > 100 µM (inactive) | > 100 µM (inactive) | > 100 µM (inactive) | > 100 µM (inactive) | > 100 µM (inactive) |

— ChEMBL document CHEMBL1201862, “PubChem BioAssay data set” (2004)
